Experimental data as given in ChEMBL document CHEMBL1152939, “p-Terphenyls from the fruiting bodies of Paxillus curtisii and their antioxidant properties” (Bioorg Med Chem, 2009).
Calls of active or inactive are those of the source. The rule behind the calls is not given here.

Columns and labels:
[1] = Antioxidant activity against ferrous and hydrogen peroxide-induced hydroxyl radical assessed inhibition of radical-mediated 2-deoxyribose damage at 100 uM after 45 mins; assay type: functional
[2] = system: Radical scavenging activity; assay: Antioxidant activity assessed as DPPH radical scavenging activity after 30 mins; assay type: functional
Nucleic Acid = assay: Protection against ferrous and hydrogen peroxide-induced single strand breakage of pBR322 DNA at 50 uM after 30 mins using ethium bromide staining; conditions: Escherichia coli
[3] = Antioxidant activity assessed as superoxide radical anion scavenging activity after 30 mins by xanthine/xanthine oxidase method; assay type: functional
[4] = Antioxidant activity assessed as ABTS radical scavenging activity after 6 mins by cation decolorization assay; assay type: functional

| Compound | Activity [1] | IC50 [2] | Activity (Nucleic Acid) | IC50 [3] | IC50 [4] |
| --- | --- | --- | --- | --- | --- |
| CC(=O)Oc1c(O)c(-c2ccc(O)cc2)c(OC(C)=O)c(O)c1-c1ccc(O)cc1 | Active | > 500 µM | Active | > 500 µM | 8.77 µM |
| CC(=O)N(O)CCCCCNC(=O)CCC(=O)N(O)CCCCCNC(=O)CCC(=O)N(O)CCCCCN | – | – | Active | – | – |
| COc1ccc(O)c(C(C)(C)C)c1.COc1ccc(O)cc1C(C)(C)C [BUTYLATED HYDROXYANISOLE] | – | 83 µM | inactive | > 500 µM | 10.7 µM |
| O=C(O)/C=C/c1ccc(O)c(O)c1 [CAFFEIC ACID] | – | 21.1 µM | – | 58 µM | 5.37 µM |
| CC(=O)Oc1c(OC(=O)C[C@@H](C)O)c(-c2ccc(O)cc2)c(OC(=O)CCc2ccccc2)c(OC(=O)C[C@@H](C)O)c1-c1ccc(O)cc1 [CURTISIAN E] | Active | > 500 µM | Active | > 500 µM | > 500 µM |
| CC(=O)O[C@H](C)CC(=O)Oc1c(O)c(-c2ccc(O)cc2)c(OC(=O)C[C@@H](C)O)c(O)c1-c1ccc(O)cc1 [CURTISIAN I] | – | > 500 µM | Active | > 500 µM | 60.4 µM |
| CC(=O)O[C@H](C)CC(=O)Oc1c(O)c(-c2ccc(O)cc2)c(OC(=O)CCc2ccccc2)c(O)c1-c1ccc(O)cc1 [CURTISIAN J] | – | > 500 µM | Active | > 500 µM | 13.5 µM |
| C[C@@H](O)CC(=O)Oc1c(O)c(-c2ccc(O)cc2)c(OC(=O)CCc2ccccc2)c(O)c1-c1ccc(O)cc1 [CURTISIAN K] | Active | > 500 µM | Active | > 500 µM | 11.3 µM |
| CC(=O)Oc1c(O)c(-c2ccc(O)cc2)c(OC(=O)C[C@@H](C)O)c(O)c1-c1ccc(O)cc1 [CURTISIAN L] | – | > 500 µM | Active | > 500 µM | 18.6 µM |
| CC(=O)O[C@H](C)CC(=O)Oc1c(O)c(-c2ccc(O)cc2)c(OC(=O)C[C@@H](C)OC(C)=O)c(O)c1-c1ccc(O)cc1 [CURTISIAN M] | Active | > 500 µM | Active | > 500 µM | 8.15 µM |
| CC(=O)Oc1c(O)c(-c2ccc(O)cc2)c(OC(=O)C[C@@H](C)OC(C)=O)c(O)c1-c1ccc(O)cc1 [CURTISIAN N] | Active | > 500 µM | Active | > 500 µM | 5.5 µM |
| CCCC(=O)Oc1c(O)c(-c2ccc(O)cc2)c(OC(C)=O)c(O)c1-c1ccc(O)cc1 [CURTISIAN O] | Active | > 500 µM | Active | > 500 µM | 7.11 µM |
| CC(=O)Oc1c(O)c(-c2ccc(O)cc2)c(OC(=O)CCc2ccccc2)c(O)c1-c1ccc(O)cc1 [CURTISIAN P] | – | > 500 µM | Active | > 500 µM | 6.44 µM |
| O=C(CCc1ccccc1)Oc1c(O)c(-c2ccc(O)cc2)c(OC(=O)CCc2ccccc2)c(O)c1-c1ccc(O)cc1 [CURTISIAN R] | – | > 500 µM | Active | > 500 µM | 8.02 µM |
| CCCC(=O)Oc1c(O)c(-c2ccc(O)cc2)c(OC(=O)CCc2ccccc2)c(O)c1-c1ccc(O)cc1 [CURTISIAN S] | – | > 500 µM | Active | > 500 µM | 8.16 µM |
| CC(=O)O[C@H](C)CC(=O)Oc1c(O)c(-c2ccc(O)cc2)c(OC(=O)c2ccccc2)c(O)c1-c1ccc(O)cc1 [CURTISIAN T] | – | > 500 µM | Active | > 500 µM | 8.43 µM |
| CC(=O)Oc1c(OC(=O)C[C@@H](C)O)c(-c2ccc(O)cc2)c(OC(C)=O)c(OC(=O)C[C@@H](C)O)c1-c1ccc(O)cc1 [CURTISIAN U] | – | > 500 µM | Active | > 500 µM | > 500 µM |
| CC(=O)Oc1c(OC(=O)CCc2ccccc2)c(-c2ccc(O)cc2)c(OC(=O)C[C@@H](C)O)c(OC(=O)C[C@@H](C)O)c1-c1ccc(O)cc1 [CURTISIAN V] | – | > 500 µM | Active | > 500 µM | > 500 µM |
| Cc1c(C)c2c(c(C)c1O)CCC(C)(C(=O)O)O2 (stereo not drawn) [TROLOX] | – | 33 µM | Active | > 500 µM | 7.91 µM |
